Experimental data reported in patent publication US10358436B2, “Kinase inhibitors and method of treating cancer” (University Health Network, priority 2010, dated 2019).

molecular target: Aurora A (Homo sapiens (Human), UniProt O14965); experiment: Aurora A inhibition assay (Z-Lyte); format: biochemical
Sequence (O14965 whole entry): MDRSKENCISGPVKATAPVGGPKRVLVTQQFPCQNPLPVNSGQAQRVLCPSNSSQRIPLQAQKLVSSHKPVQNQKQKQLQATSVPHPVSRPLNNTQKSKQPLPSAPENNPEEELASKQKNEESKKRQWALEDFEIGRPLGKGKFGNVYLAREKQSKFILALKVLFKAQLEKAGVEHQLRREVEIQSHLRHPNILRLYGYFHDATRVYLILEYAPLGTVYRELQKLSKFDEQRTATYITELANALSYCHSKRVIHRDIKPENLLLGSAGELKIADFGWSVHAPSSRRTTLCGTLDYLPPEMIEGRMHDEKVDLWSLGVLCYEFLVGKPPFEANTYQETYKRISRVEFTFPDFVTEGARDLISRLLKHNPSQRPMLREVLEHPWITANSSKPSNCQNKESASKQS

| inhibition at 1 µM [%] | Compound |
| --- | --- |
| < 50 | COc1ccc2c(c1)[C@]1(C[C@H]1c1ccc3c(-c4ccc(N5CCC(N(C)C)CC5)cc4)n[nH]c3c1)C(=O)N2 (relative stereo) [Example A119, (1R*,2S*)-2-(3-(4-(4-(dimethylamino)piperidin-1-yl)phenyl)-1H-indazol-6-yl)-5′-methoxyspiro[cyclopropane-1,3′-indolin]-2′-one 2,2,2-trifluoroacetate] |
| < 50 | NS(=O)(=O)c1cccc(-c2n[nH]c3cc([C@@H]4C[C@@]45C(=O)Nc4ccccc45)ccc23)c1 (relative stereo) [Example A130, 3-(6-((1R*,2S*)-2′-oxospiro[cyclopropane-1,3′-indoline]-2-yl)-1H-indazol-3-yl)benzenesulfonamide] |
| > 50 | COc1ccc2c(c1)[C@]1(C[C@H]1c1ccc3c(/C=C/c4cccc(CN5CCOCC5)c4)n[nH]c3c1)C(=O)N2 (relative stereo) [Example A133, (1R*,2S*)-5′-methoxy-2-(3-(3-(morpholinomethyl)styryl)-1H-indazol-6-yl)spiro[cyclopropane-1,3′-indolin]-2′-one 2,2,2-trifluoroacetate] |
| > 50 | COc1ccc2c(c1)[C@]1(C[C@H]1c1ccc3c(/C=C/c4cccc(CN(C)C)c4)n[nH]c3c1)C(=O)N2 (relative stereo) [Example A135, (1R*,2S*)-2-(3-(3-((dimethylamino)methyl)styryl)-1H-indazol-6-yl)-5′-methoxyspiro[cyclopropane-1,3′-indolin]-2′-one 2,2,2-trifluoroacetate] |
| < 50 | COc1ccc2c(c1)[C@]1(C[C@H]1c1ccc3c(-c4cccc(CN5CCOCC5)c4)n[nH]c3c1)C(=O)N2 (relative stereo) [Example A136, (1R*,2S*)-5′-methoxy-2-(3-(3-(morpholinomethyl)phenyl)-1H-indazol-6-yl)spiro[cyclopropane-1,3′-indolin]-2′-one 2,2,2-trifluoroacetate] |
| < 50 | COc1ccc2c(c1)[C@]1(C[C@H]1c1ccc3c(C#Cc4ccc(C=O)cc4)n[nH]c3c1)C(=O)N2 (relative stereo) [Example A137, 4-((6-((1R*,2S*)-5′-methoxy-2′-oxospiro[cyclopropane-1,3′-indoline]-2-yl)-1H-indazol-3-yl)ethynyl)benzaldehyde] |
| < 50 | COc1ccc2c(c1)[C@]1(C[C@H]1c1ccc3c(-c4ccc(CN5CCOCC5)cc4)n[nH]c3c1)C(=O)N2 (relative stereo) [Example A139, (1R*,2S*)-5′-methoxy-2-(3-(4-(morpholinomethyl)phenyl)-1H-indazol-6-yl)spiro[cyclopropane-1,3′-indolin]-2′-one 2,2,2-trifluoroacetate] |
| < 50 | COc1ccc2c(c1)[C@]1(C[C@H]1c1ccc3c(-c4ccc(CN5CCN(C)CC5)cc4)n[nH]c3c1)C(=O)N2 (relative stereo) [Example A140, (1R*,2S*)-5′-methoxy-2-(3-(4-((4-methylpiperazin-1-yl)methyl)phenyl)-1H-indazol-6-yl)spiro[cyclopropane-1,3′-indolin]-2′-one bis-2,2,2-trifluoroacetate] |
| < 50 | CCc1ccc2c(c1)[C@]1(C[C@H]1c1ccc3c(-c4cccc(CN5CCOCC5)c4)n[nH]c3c1)C(=O)N2 (relative stereo) [Example A141, (1R*,2S*)-5′-ethyl-2-(3-(3-(morpholinomethyl)phenyl)-1H-indazol-6-yl)spiro[cyclopropane-1,3′-indolin]-2′-one 2,2,2-trifluoroacetate] |
| < 50 | COc1ccc2c(c1)[C@]1(C[C@H]1c1ccc3c(C#Cc4ccc(CN5CCN(C)CC5)cc4)n[nH]c3c1)C(=O)N2 (relative stereo) [Example A145, (1R*,2S*)-5′-methoxy-2-(3-((4-((4-methylpiperazin-1-yl)methyl)phenyl)ethynyl)-1H-indazol-6-yl)spiro[cyclopropane-1,3′-indolin]-2′-one bis(2,2,2-trifluoroacetate)] |
| < 50 | CN1CCN(Cc2ccc(-c3n[nH]c4cc([C@@H]5C[C@@]56C(=O)Nc5ccccc56)ccc34)cc2)CC1 (relative stereo) [Example A155, (1R*,2S*)-2-(3-(4-((4-methylpiperazin-1-yl)methyl)phenyl)-1H-indazol-6-yl)spiro[cyclopropane-1,3′-indolin]-2′-one bis-2,2,2-trifluoroacetate] |
| < 50 | CN1CCN(C(=O)c2ccc(-c3n[nH]c4cc([C@@H]5C[C@@]56C(=O)Nc5ccccc56)ccc34)cc2)CC1 (relative stereo) [Example A156, (1R*,2S*)-2-(3-(4-(4-methylpiperazine-1-carbonyl)phenyl)-1H-indazol-6-yl)spiro[cyclopropane-1,3′-indolin]-2′-one 2,2,2-trifluoroacetate] |
| > 50 | Cc1ccc(/C=C/c2n[nH]c3cc([C@@H]4C[C@@]45C(=O)Nc4ccccc45)ccc23)c(C)n1 (relative stereo) [Example A158, (1R*,2S*)-2-(3-((E)-2-(2,6-dimethylpyridin-3-yl)vinyl)-1H-indazol-6-yl)spiro[cyclopropane-1,3′-indolin]-2′-one] |
| < 50 | COc1ccc2c(c1)[C@]1(C[C@H]1c1ccc3c(-c4ccc(CCN5CCOCC5)cc4)n[nH]c3c1)C(=O)N2 (relative stereo) [Example A159, (1R*,2S*)-5′-methoxy-2-(3-(4-(2-morpholinoethyl)phenyl)-1H-indazol-6-yl)spiro[cyclopropane-1,3′-indolin]-2′-one 2,2,2-trifluoroacetate] |
| > 50 | CN(C)Cc1ccc(/C=C/c2n[nH]c3cc([C@@H]4C[C@@]45C(=O)N(CC(N)=O)c4ccccc45)ccc23)cc1 (relative stereo) [Example A160, 2-((1R*,2S*)-(E)-2-(3-(4-((dimethylamino)methyl)styryl)-1H-indazol-6-yl)-2′-oxospiro[cyclopropane-1,3′-indoline]-1′-yl)acetamide 2,2,2-trifluoroacetate] |
| > 50 | CN(C)Cc1cccc(/C=C/c2n[nH]c3cc([C@@H]4C[C@@]45C(=O)Nc4ccccc45)ccc23)c1 (relative stereo) [Example A162, (1R*,2S*)-(E)-2-(3-(3-((dimethylamino)methyl)styryl)-1H-indazol-6-yl)spiro[cyclopropane-1,3′-indolin]-2′-one 2,2,2-trifluoroacetate] |
| > 50 | NC(=O)CN1C(=O)[C@@]2(C[C@H]2c2ccc3c(/C=C/c4ccc(CN5CCCCC5)cc4)n[nH]c3c2)c2ccccc21 (relative stereo) [Example A165, 2-((1R*,2S*)-(E)-2′-oxo-2-(3-(4-(piperidin-1-ylmethyl)styryl)-1H-indazol-6-yl)spiro[cyclopropane-1,3′-indoline]-1′-yl)acetamide 2,2,2-trifluoroacetate] |
| < 50 | COc1ccc2c(c1)[C@]1(C[C@H]1c1ccc3c(-c4ccc(CN(C)C)cc4)n[nH]c3c1)C(=O)N2 (relative stereo) [Example A166, (1R*,2S*)-2-(3-(4-((dimethylamino)methyl)phenyl)-1H-indazol-6-yl)-5′-methoxyspiro[cyclopropane-1,3′-indolin]-2′-one 2,2,2-trifluoroacetate] |
| < 50 | COc1cc2c(cc1OC)[C@]1(C[C@H]1c1ccc3c(/C=C/c4ccc(CN(C)C)cc4)n[nH]c3c1)C(=O)N2 (relative stereo) [Example A168, (1R*,2S*)-(E)-2-(3-(4-((dimethylamino)methyl)styryl)-1H-indazol-6-yl)-5′,6′-dimethoxyspiro[cyclopropane-1,3′-indolin]-2′-one 2,2,2-trifluoroacetate] |
| > 50 | Cc1ccc2c(c1)[C@]1(C[C@H]1c1ccc3c(/C=C/c4ccc(CN(C)C)cc4)n[nH]c3c1)C(=O)N2 (relative stereo) [Example A169, (1R*,2S*)-(E)-2-(3-(4-((dimethylamino)methyl)styryl)-1H-indazol-6-yl)-5′-methylspiro[cyclopropane-1,3′-indolin]-2′-one 2,2,2-trifluoroacetate] |
| < 50 | Cc1ccc2c(c1)[C@]1(C[C@H]1c1ccc3c(-c4ccc(N5CCN(C)CC5)cc4)n[nH]c3c1)C(=O)N2 (relative stereo) [Example A173, (1R*,2S*)-5′-methyl-2-(3-(4-(4-methylpiperazin-1-yl)phenyl)-1H-indazol-6-yl)spiro[cyclopropane-1,3′-indolin]-2′-one 2,2,2-trifluoroacetate] |
| > 50 | COc1ccc2c(c1)[C@]1(C[C@H]1c1ccc3c(/C=C/c4ccc(N5CCN(C)CC5)cc4)n[nH]c3c1)C(=O)N2 (relative stereo) [Example A174, (1R*,2S*)-(E)-5′-methoxy-2-(3-(4-(4-methylpiperazin-1-yl)styryl)-1H-indazol-6-yl)spiro[cyclopropane-1,3′-indolin]-2′-one 2,2,2-trifluoroacetate] |

| Compound | inhibition at 1 µM [%] |
| --- | --- |
| COc1ccc2c(c1)[C@]1(C[C@H]1c1ccc3c(-c4ccc(N5CCC(O)CC5)nc4)n[nH]c3c1)C(=O)N2 (relative stereo) [Example A117, (1R*,2S*)-2-(3-(6-(4-hydroxypiperidin-1-yl)pyridin-3-yl)-1H-indazol-6-yl)-S-methoxyspiro[cyclopropane-1,3′-indolin]-2′-one 2,2,2-trifluoroacetate] | < 50 |
| COc1ccc2c(c1)[C@]1(C[C@H]1c1ccc3c(-c4ccc(C5CCNCC5)cc4)n[nH]c3c1)C(=O)N2 (relative stereo) [Example A122, (1R*,2S*)-5′-methoxy-2-(3-(4-(piperidin-4-yl)phenyl)-1H-indazol-6-yl)spiro[cyclopropane-1,3′-indolin]-2′-one 2,2,2-trifluoroacetate] | < 50 |
| CCc1ccc2c(c1)[C@]1(C[C@H]1c1ccc3c(/C=C/c4ccc(CN(C)C)cc4)n[nH]c3c1)C(=O)N2 (relative stereo) [Example A167, (1R*,2S*)-(E)-2-(3-(4-((dimethylamino)methyl)styryl)-1H-indazol-6-yl)-5′-ethylspiro[cyclopropane-1,3′-indolin]-2′-one 2,2,2-trifluoroacetate] | > 50 |
